Patent US12605382B2, “Pharmaceutical composition for preventing, alleviating, or treating cancer containing 2,6-dichloro-4-(4-(4-hydroxycyclohexylamino)-7H- pyrrolo[2,3-d]pyrimidin-5-yl)phenol as active ingredient” (JBKLAB CO., LTD., priority 2021, dated 2026)

Key:
[1] = test system: breast cancer cells (MBA-MB-231); test: Xenograft tumor growth inhibition, TNBC cells in nude mice; format: in vivo; conditions: xenograft Balb/c nude mice, tumor size measured for 3 weeks
Protocol: An experiment was performed to confirm the tumor inhibition of the compound of Example 1, the active ingredient of the pharmaceutical composition of the present invention, on a xenograft tumor sample of breast cancer cells (MBA-MB-231), a human-derived TNBC cell line.
Specifically, to confirm the […] inhibitory effect of the compound of Example 1, the active ingredient of the pharmaceutical composition of the present invention, on breast cancer cell viability, an experiment was performed using 80 female 5-week-old xenograft Balb/c nude mice, which were approximately 8 weeks old at the start of administration.
The experimental xenograft Balb/c nude mice lacks T cells, the immune cells, were selected as an animal model suitable for transplanting human cancer cells. At the time of administration, animals within ±20% of the total average body weight were selected, and tumor growth was checked twice a week on the surface, and the size of the tumor was measured with a vernier caliper for 3 weeks.

[2] = test system: Hep3B; test: Clonogenic assay; format: cell-based; conditions: 2.5 and 5 μM, 10 days
Protocol: (§1) HepG2 and Hep3B were each seeded in 12-well plates at the density of 3×10^3 cells/well and cultured for 24 hours. Then, Sorafenib and the compound of Example 1 were treated thereto at 2.5 and 5 μM each and cultured for 10 days. Upon completion of the culture, the cells were washed with PBS, fixed with 37% formaldehyde, and stained with 0.01% crystal violet. After staining, the cells were washed with distilled water and the colonies of stained cells were photographed.

[3] = test system: HepG2; test: Clonogenic assay; format: cell-based; conditions: 2.5 and 5 μM, 10 days
Protocol: as §1

[4] = test system: breast cancer cell line; test: Formation of mammospheres in a breast cancer cell line; format: cell-based
[5] = test system: 4T1 murine triple negative breast cancer cells; test: Tumor size in triple-negative breast cancer allograft mouse model; format: in vivo, BALB/c mice; conditions: 10 mg/kg intravenously
Protocol: 4T1 murine triple negative breast cancer cells (6×10^5 cells) were injected into the hind limbs of 6-week-old immune-competent BALB/c mice. Seven days after injection, after confirming consistent tumor growth, 10 mice from each group were selected and used in subsequent experiments.
The experimental groups consisted of a control group (no treatment), a radiotherapy group, a group treated with the compound of Example 1, and a group treated with a combination of the compound of Example 1 and radiotherapy. Each treatment was carried out for 31 days after tumor implantation.
Radiation treatment was performed using electron beams, and a total of 24 Gy was irradiated three times, once every two days for one week (Days 10, 12, and 14) (8 Gy×3). The compound of Example 1 was administered intravenously at a dose of 10 mg/kg once every 2 or 3 days (Days 10, 12, 14, 17, 19, and 21) for a total of 6 times over 2 weeks. On the days when radiation therapy and drug administration were conducted simultaneously, the compound of Example 1 was administered after confirming that the mice had recovered from anesthesia 4 hours after radiation therapy.
On each treatment day, the length and width of the tumor were measured using a vernier caliper, and then the tumor volume (mm^3) was calculated using mathematical formula 1 below. Volume (mm^3)=length (mm)×{width (mm)}^2×0.5 [Mathematical Formula 1]

[6] = test system: BRD4; test: Western blotting of tumor tissue from MDA-MB-231 tumor-bearing mice; format: in vivo, BALB/c-nude mice; conditions: 5, 10 and 20 mg/kg (T4, T5, T6), once by intravenous injection
Protocol: (§2) An experiment was performed to confirm the inhibitory effect of the compound of Example 1, the active ingredient of the pharmaceutical composition of the present invention, on the expression of major proteins on cancer cell growth through Western blotting.
(§3) Specifically, MDA-MB-231 cells, a TNBC cell line, were cultured in a 37° C., 5% CO2 incubator, and the medium used for cell culture was RPMI-1640 supplemented with 10% FBS. Tumors were induced by subcutaneously injecting 5×10^6/head/100 μl of MDA-MB-231 cells into the right neck of BALB/c-nude mice (5 mice each in control and administration groups), and the experiment was performed when the tumor size reached 200 mm^3. The compound of Example 1, the active ingredient of the pharmaceutical composition of the present invention, was administered once by intravenous injection at concentrations of 5, 10, and 20 mg/kg (T4, T5, and T6) and then euthanized using CO2, and the resulting tumor tissues from the control and administration groups were taken and subjected to Western blotting. Proteins were isolated from the tumor tissues and the results of Western blotting were confirmed using BRD4, c-myc, PD-L1, and Actin antibodies, respectively.

[7] = test system: c-myc; test: as above; format: in vivo, BALB/c-nude mice; conditions: 5, 10 and 20 mg/kg (T4, T5, T6), once by intravenous injection
Protocol: as §2, §3

[8] = test system: PD-L1; test: as above; format: in vivo, BALB/c-nude mice; conditions: 5, 10 and 20 mg/kg (T4, T5, T6), once by intravenous injection
Protocol: as §2, §3

[9] = test system: Hep3B; test: WST-8 cell viability assay, hepatocellular carcinoma cell line; format: cell-based
Protocol: (§4) Specifically, the WST-8 assay to check the cell viability of HepG2 and Hep3B, which are hepatocellular carcinoma cell lines shown in FIGS. 7A-7C and 8A-8C, was performed as follows. HepG2 and Hep3B were each seeded in 96-well plates at the density of 5×10^3 cells/well and cultured for 24 hours. Then, Sorafenib and OPT-0139 were diluted stepwise at a twofold concentration and then treated to the plates at different concentrations, followed by culture for 24, 48, and 72 hours. […] of WST-8 solution was added to each well of the plate, and the absorbance was measured with a microplate reader using a 450 nm optical filter to measure the formazan produced by the reducing factors in living cells.
(§5) Therefore, the number of living cells could be measured by measuring absorbance.

[10] = test system: HepG2; test: as above; format: cell-based
Protocol: as §4, §5

[11] = test system: SK Hep1; test: Cell viability alone and in combination with sorafenib; format: cell-based, Human
Protocol: (§6) Human liver cancer cell lines (SK Hep1 and Huh-7) were treated with control (no treatment), 0.1 μM of the compound of Example 1, 1 μM of sorafenib, and 0.1 μM of the compound of Example 1/1 μM of sorafenib, and the cell viability of SK Hep1 and Huh-7 was confirmed.

[12] = test system: Huh-7; test: as above; format: cell-based, Human
Protocol: as §6

[13] = 0.1 μM Example 1 combined with 1 μM sorafenib

Question: Which tumor growth [1] does the source give for Oc1c(Cl)cc(-c2c[nH]c3ncnc(N[C@H]4CC[C@H](O)CC4)c23)cc1Cl [Example 1, (trans)-2,6-dichloro-4-(4-(4-hydroxycyclohexylamino)-7H-pyrrolo[2,3-d]pyrimidin-5-yl)phenol] here?
Answer: significantly inhibit the tumor growth

Question: What about the “number of colonies, treated vs not treated” value [2] of the same molecule?
Answer: clear difference in the number of colonies

Question: What about the “number of colonies, treated vs not treated” value [3] of the same molecule?
Answer: clear difference in the number of colonies

Question: And the formation of mammospheres [4]?
Answer: inhibits

Question: And the “tumor growth compared to control group” value ([5]; alone, 6 times over 2 weeks, observed 31 days)?
Answer: significantly delayed the tumor growth

Question: And the “tumor growth compared to each administration alone” value ([5]; combined with radiation (8 Gy×3), 6 times)?
Answer: superior inhibitory effect on the tumor growth

Question: And the “expression of BRD4 in tumor tissue vs untreated negative control (NC)” value [6]?
Answer: reduced

Question: What about the “expression of c-myc in tumor tissue vs untreated negative control (NC)” value [7] of the same molecule?
Answer: reduced

Question: What about the “expression of PD-L1 in tumor tissue vs untreated negative control (NC)” value [8] of the same molecule?
Answer: reduced

Question: What about the “effect on cell viability compared to Sorafenib” value [9] of the same molecule?
Answer: remarkable effect compared to Sorafenib

Question: What about the cell viability ([9]; 24, 48 and 72 hours) of the same molecule?
Answer: decreased the cell viability dose and time dependently

Question: What about the “effect on cell viability compared to Sorafenib” value [10] of the same molecule?
Answer: remarkable effect compared to Sorafenib

Question: What about the cell viability ([10]; 24, 48 and 72 hours) of the same molecule?
Answer: decreased the cell viability dose and time dependently

Question: What about the cell viability [11, 13] of the same molecule?
Answer: further inhibited (synergistic effect)

Question: And the cell viability ([11]; 0.1 μM alone)?
Answer: suppressed

Question: What about the cell viability [12, 13] of the same molecule?
Answer: further inhibited (synergistic effect)

Question: And the cell viability ([12]; 0.1 μM alone)?
Answer: suppressed
